Results reported in patent publication US8003660B2, “Modulators of muscarinic receptors” (Vertex Pharmaceuticals Incorporated, priority 2006, dated 2011).
pEC50: −log10 of the molar value.

Columns and labels:
Format in all cases: cell-based
[1] = molecular target: T1, M3 muscarinic receptor (Homo sapiens, UniProt P20309); test: Functional mobilization of intracellular calcium (FLIPR) in CHO cells expressing M3; settings: for pEC50: CHO cells expressing M3, FLIPR calcium; for Emax: CHO, read-out: M3 Efficacy
T1 construct: expressed in transfected cells; host or cells: CHO (M3-CHO)
T1 sequence (P20309 whole entry): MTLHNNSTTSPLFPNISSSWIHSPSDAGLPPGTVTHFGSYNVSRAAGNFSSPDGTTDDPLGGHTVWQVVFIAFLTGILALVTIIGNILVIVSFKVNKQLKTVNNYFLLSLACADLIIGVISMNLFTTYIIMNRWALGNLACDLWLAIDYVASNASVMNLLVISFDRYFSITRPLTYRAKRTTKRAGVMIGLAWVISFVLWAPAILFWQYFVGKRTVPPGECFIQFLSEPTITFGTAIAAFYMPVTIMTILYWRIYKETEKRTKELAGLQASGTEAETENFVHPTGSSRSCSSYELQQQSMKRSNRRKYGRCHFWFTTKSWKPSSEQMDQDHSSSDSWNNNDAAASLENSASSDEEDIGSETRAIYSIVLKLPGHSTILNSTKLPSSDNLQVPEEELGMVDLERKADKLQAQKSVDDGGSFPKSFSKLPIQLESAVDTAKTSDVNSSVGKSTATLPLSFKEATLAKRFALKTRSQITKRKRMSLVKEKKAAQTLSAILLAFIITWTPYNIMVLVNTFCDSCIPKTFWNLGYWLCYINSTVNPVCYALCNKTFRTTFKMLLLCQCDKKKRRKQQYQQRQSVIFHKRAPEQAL
Description: (§1) Functional Mobilization of Intracellular Calcium to Determine Muscarinic Receptor Activity:
(§2) CHO cells expressing muscarinic receptors (M1 to M5) are grown as monolayers in tissue culture flasks at 37° C. in a humidified atmosphere containing 5% CO2 and passaged every 3-5 days. The growth media is Dulbecco's modified eagles medium (DMEM, Gibco Cat# 12430-054), containing 25 mM Hepes and supplemented with Fetal Bovine Serum (Hyclone, cat# SH30071.03), 0.1 mM of MEM non-essential amino acids (GIBCO, Cat# 11140-050), 1 mM MEM Sodium Pyruvate (GIBCO Cat# 11360-070) and 100 units/ml of Penicillin G and 100 μg/ml of Streptomycin (GIBCO Cat# 15140-122). The recombinant muscarinic receptor cell lines are grown under antibiotic pressure with media containing 25 μg/ml zeocin and 500 μg/ml G418 (M1-CHO), 4 μg/ml puromycin, 50 μg/ml zeocin and 2.5 μg/ml blasticidin (M2 and M4-CHO) or 50 μg/ml zeocin and 4 μg/ml puromycin (M3 and M5-CHO).
(§3) Cells are harvested at 80-90% confluence using Versene (GIBCO Cat# 15040-066), collected by centrifugation and seeded 18-24 hrs prior to running the calcium assay at a density of 5,000-10,000 cells/well in […], clear-bottomed 384-well plates (BD Biocoat, poly-D-lysine, Cat#356663). The day of the experiment, the cells are washed with a plate washer (Bioteck Instruments, ELX 405) using bath 1 buffer (140 mM NaCl, 4,5 mM KCl, 2 mM CaCl2, 1 mM MgCl2, 10 mM Hepes-Na, 10 mM Glucose, pH 7.4, with NaOH) containing 1 mM Probenecid. Next, the calcium dye Fluo-3 (25 μl/well of Fluo-3 AM at 4 μM, Molecular Probes F-1241, in Bath 1 buffer containing 1 mM Probenecid) is added to the 25 μl of Bath 1 remaining in each well after the plate wash and the dye is loaded at 37° C. in the tissue culture incubator for 60-90 min. The fluorescent dye is removed using the plate washer with Bath 1 containing 1 mM Probenecid, leaving 25 μl/well of this solution after the wash. Alternatively, cells can be loaded with the calcium indicator from Molecular Devices (Calcium 3 Assay Reagents, Cat #R7181) adding 5 μl of a 5× solution dye in Bath 1 containing 1 mM Probenecid (10 ml per dye flask cat#R7182 to generate a solution […]) to 20 μl of the same buffer. After loading for 60 min, the experiment can be run without having to remove the dye.
(§4) Compounds are prepared at a 2× fold concentration in a 96-well plate (round bottom, Costar Corning cat#3656), by reconstituting the pre-spotted compounds in bath 1 containing 1 mM probenecid. The final concentration DMSO is 0.5%, and the amount of DMSO is normalized across the assay plate. To determine an agonist action of the compounds on muscarinic receptors, the reconstituted compounds are added (25 μl compound/well) to the cell assay plate (containing 25 μl/well) using the multi-channel robotic system of the FLIPR 3 Instrument (Molecular Devices, Sunnyvale, Calif.). To determine a functional inhibitory action of the compounds on muscarinic receptors, the reconstituted compounds are added (25 μl compound/well) to the assay plate and pre-incubated for 15 min prior to adding 25 μl of Carbachol at 3× the EC80 for each muscarinic subtype. Alternatively, the compounds can be co-applied simultaneously with the agonist. In both assay modes, the fluorescence is recorded for 60 sec (excitation wavelength is […] and emission wavelength 540 nm) using the FLIPR 3 instrument.
(§5) The potency, efficacy and selectivity of the muscarinic compounds were evaluated by screening the compound activity across the whole family (M1 to M5 cells). Compounds were also screened for activity on other proteins such as other GPCRs and ion channels to determine selectivity on M4 receptors.

[2] = molecular target: T2, M2 muscarinic receptor (Homo sapiens, UniProt P08172); test: Functional mobilization of intracellular calcium (FLIPR) in CHO cells expressing M2; settings: for pEC50: CHO cells expressing M2, FLIPR calcium; for Emax: CHO, read-out: M2 Efficacy
T2 construct: expressed in transfected cells; host or cells: CHO (M2-CHO)
T2 sequence (P08172 1-466): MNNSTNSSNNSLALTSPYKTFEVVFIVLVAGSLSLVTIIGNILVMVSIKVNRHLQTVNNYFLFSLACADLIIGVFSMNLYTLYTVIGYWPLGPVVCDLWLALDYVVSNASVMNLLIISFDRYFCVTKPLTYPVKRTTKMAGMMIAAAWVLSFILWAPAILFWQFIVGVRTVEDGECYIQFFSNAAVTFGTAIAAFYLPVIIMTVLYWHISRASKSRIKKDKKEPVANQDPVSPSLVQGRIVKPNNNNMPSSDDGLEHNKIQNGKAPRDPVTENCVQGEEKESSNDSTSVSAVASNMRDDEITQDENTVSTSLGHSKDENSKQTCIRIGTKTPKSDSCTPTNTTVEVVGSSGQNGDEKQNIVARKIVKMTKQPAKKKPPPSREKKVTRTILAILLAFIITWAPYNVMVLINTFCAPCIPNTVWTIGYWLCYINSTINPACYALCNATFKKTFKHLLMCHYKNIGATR
Description: as §1, §2, §3, §4, §5

[3] = molecular target: T3, M1 muscarinic receptor (Homo sapiens, UniProt P11229); test: Functional mobilization of intracellular calcium (FLIPR) in CHO cells expressing M1; settings: for pEC50: CHO cells expressing M1, FLIPR calcium; for Emax: CHO, read-out: M1 Efficacy
T3 construct: expressed in transfected cells; host or cells: CHO (M1-CHO)
T3 sequence (P11229 1-460): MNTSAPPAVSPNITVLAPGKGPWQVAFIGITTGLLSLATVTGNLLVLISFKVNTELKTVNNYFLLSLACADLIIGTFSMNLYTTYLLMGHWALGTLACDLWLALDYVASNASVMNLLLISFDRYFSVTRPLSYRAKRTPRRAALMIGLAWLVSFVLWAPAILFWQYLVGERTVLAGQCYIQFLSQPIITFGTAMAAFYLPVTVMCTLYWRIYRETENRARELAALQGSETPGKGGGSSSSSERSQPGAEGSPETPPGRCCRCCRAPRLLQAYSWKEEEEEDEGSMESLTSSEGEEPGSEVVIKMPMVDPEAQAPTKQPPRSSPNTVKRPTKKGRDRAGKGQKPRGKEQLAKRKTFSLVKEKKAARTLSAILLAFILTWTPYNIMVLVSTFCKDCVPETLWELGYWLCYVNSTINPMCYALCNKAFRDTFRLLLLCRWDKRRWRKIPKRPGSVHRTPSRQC
Description: as §1, §2, §3, §4, §5

[4] = molecular target: T4, M4 muscarinic receptor (Homo sapiens, UniProt P08173); test: Functional mobilization of intracellular calcium (FLIPR) in CHO cells expressing M4; settings: for pEC50: CHO cells expressing M4, FLIPR calcium; for Emax: CHO, read-out: M4 Efficacy
T4 construct: expressed in transfected cells; host or cells: CHO (M4-CHO)
T4 sequence (P08173 1-479): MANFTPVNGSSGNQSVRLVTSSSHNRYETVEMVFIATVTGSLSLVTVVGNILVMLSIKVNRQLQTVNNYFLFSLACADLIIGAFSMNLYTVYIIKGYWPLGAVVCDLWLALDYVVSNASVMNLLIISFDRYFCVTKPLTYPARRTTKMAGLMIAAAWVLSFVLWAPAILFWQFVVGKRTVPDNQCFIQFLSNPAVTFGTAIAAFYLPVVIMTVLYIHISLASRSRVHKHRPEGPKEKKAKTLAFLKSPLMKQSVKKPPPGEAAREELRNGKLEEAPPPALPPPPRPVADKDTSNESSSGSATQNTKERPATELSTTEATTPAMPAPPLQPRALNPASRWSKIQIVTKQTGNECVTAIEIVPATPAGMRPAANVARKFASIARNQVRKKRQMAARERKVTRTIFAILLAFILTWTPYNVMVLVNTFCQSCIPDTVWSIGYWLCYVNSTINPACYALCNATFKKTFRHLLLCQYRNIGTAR
Description: as §1, §2, §3, §4, §5

[5] = 100% = maximum response obtained with the Carbachol control

CC(=O)NCCC(=O)N[C@@H]1CCC2(CCN(CCC(C)(C)C)CC2)c2ccccc21 [compound 8]
pEC50 [1]: < 5.30 | Emax [1, 5]: < 25% | pEC50 [2]: 5.30 to 5.70 | Emax [2, 5]: < 25% | pEC50 [3]: > 5.70 | Emax [3, 5]: 25 to 100% | pEC50 [4]: > 5.70 | Emax [4, 5]: 25 to 100%

CCN(C(=O)C1CCOC1)[C@H]1CCC2(CCN(CCC(C)(C)C)CC2)c2ccccc21 (stereo partly shown) [compound 9]
pEC50 [1]: < 5.30 | Emax [1, 5]: < 25% | pEC50 [2]: < 5.30 | Emax [2, 5]: < 25% | pEC50 [3]: < 5.30 | Emax [3, 5]: 25 to 100% | pEC50 [4]: > 5.70 | Emax [4, 5]: 25 to 100%

CCN(C(=O)c1cscn1)[C@H]1CCC2(CCN(CCC(C)(C)C)CC2)c2ccccc21 [compound 10]
pEC50 [1]: < 5.30 | Emax [1, 5]: < 25% | pEC50 [2]: < 5.30 | Emax [2, 5]: < 25% | pEC50 [3]: < 5.30 | Emax [3, 5]: < 25% | pEC50 [4]: > 5.70 | Emax [4, 5]: 25 to 100%

CCC(=O)N[C@@H]1CCC2(CCN(CCC(C)(C)C)CC2)c2cc(F)ccc21 [compound 11]
pEC50 [1]: < 5.30 | Emax [1, 5]: < 25% | pEC50 [2]: < 5.30 | Emax [2, 5]: < 25% | pEC50 [3]: > 5.70 | Emax [3, 5]: 25 to 100% | pEC50 [4]: > 5.70 | Emax [4, 5]: 25 to 100%

CCOC(=O)N[C@H]1CCC2(CCN(CCC(C)(C)C)CC2)c2ccccc21 [compound 12]
pEC50 [1]: < 5.30 | Emax [1, 5]: < 25% | pEC50 [2]: > 5.70 | Emax [2, 5]: 25 to 100% | pEC50 [3]: > 5.70 | Emax [3, 5]: 25 to 100% | pEC50 [4]: > 5.70 | Emax [4, 5]: 25 to 100%

CCC(=O)N1CCCC(C(=O)N[C@@H]2CCC3(CCN(CCC(C)(C)C)CC3)c3ccccc32)C1 (stereo partly shown) [compound 13]
pEC50 [1]: < 5.30 | Emax [1, 5]: < 25% | pEC50 [2]: < 5.30 | Emax [2, 5]: < 25% | pEC50 [3]: < 5.30 | Emax [3, 5]: < 25% | pEC50 [4]: > 5.70 | Emax [4, 5]: 25 to 100%

CC(=O)N[C@H](C)C(=O)N[C@@H]1CCC2(CCN(CCC(C)(C)C)CC2)c2ccccc21 [compound 14]
M3 Efficacy [1, 5]: + (efficacy was calculated to be less than 25%) | pEC50 [1]: < 5.30 | M2 Efficacy [2, 5]: + (efficacy was calculated to be less than 25%) | pEC50 [2]: 5.30 to 5.70 | M1 Efficacy [3, 5]: ++ (efficacy was calculated to be from 100% to 25%) | pEC50 [3]: < 5.30 | M4 Efficacy [4, 5]: ++ (efficacy was calculated to be from 100% to 25%) | pEC50 [4]: > 5.70

CCN(C(=O)C1CCCN1C(C)=O)[C@H]1CCC2(CCN(CCC(C)(C)C)CC2)c2ccccc21 (stereo partly shown) [compound 15]
pEC50 [1]: < 5.30 | Emax [1, 5]: < 25% | pEC50 [2]: < 5.30 | Emax [2, 5]: < 25% | pEC50 [3]: > 5.70 | Emax [3, 5]: 25 to 100% | pEC50 [4]: > 5.70 | Emax [4, 5]: 25 to 100%

COC(=O)CCCN1CCC2(CC[C@H](NC(C)=O)c3ccccc32)CC1 [compound 16]
pEC50 [1]: < 5.30 | Emax [1, 5]: < 25% | pEC50 [2]: < 5.30 | Emax [2, 5]: < 25% | pEC50 [3]: 5.30 to 5.70 | Emax [3, 5]: 25 to 100% | pEC50 [4]: < 5.30 | Emax [4, 5]: 25 to 100%

CC(C)(C)CCN1CCC2(CC[C@@H](NC(=O)CC3CCCC3=O)c3ccc(F)cc32)CC1 (stereo partly shown) [compound 17]
pEC50 [1]: < 5.30 | Emax [1, 5]: < 25% | pEC50 [2]: < 5.30 | Emax [2, 5]: < 25% | pEC50 [3]: > 5.70 | Emax [3, 5]: 25 to 100% | pEC50 [4]: > 5.70 | Emax [4, 5]: 25 to 100%

CC(=O)CCC(=O)N[C@H]1CCC2(CCN(CCC(C)(C)C)CC2)c2ccccc21 [compound 18]
pEC50 [1]: < 5.30 | Emax [1, 5]: < 25% | pEC50 [2]: > 5.70 | Emax [2, 5]: 25 to 100% | pEC50 [3]: > 5.70 | Emax [3, 5]: 25 to 100% | pEC50 [4]: > 5.70 | Emax [4, 5]: 25 to 100%

COC(C)(C)CCCC(C)CCN1CCC2(CC[C@H](NC(=O)N(C)C)c3ccccc32)CC1 (stereo partly shown) [compound 19]
pEC50 [1]: < 5.30 | Emax [1, 5]: < 25% | pEC50 [2]: < 5.30 | Emax [2, 5]: < 25% | pEC50 [3]: < 5.30 | Emax [3, 5]: < 25% | pEC50 [4]: < 5.30 | Emax [4, 5]: < 25%

CC(=O)NCCC(=O)N[C@@H]1CCC2(CCN(CCC(C)(C)C)CC2)c2cc(F)ccc21 [compound 20]
pEC50 [1]: < 5.30 | Emax [1, 5]: < 25% | pEC50 [2]: > 5.70 | Emax [2, 5]: 25 to 100% | pEC50 [3]: > 5.70 | Emax [3, 5]: 25 to 100% | pEC50 [4]: > 5.70 | Emax [4, 5]: 25 to 100%

CCOCCC(=O)N[C@@H]1CCC2(CCN(CCC(C)(C)C)CC2)c2ccccc21 [compound 21]
pEC50 [1]: < 5.30 | Emax [1, 5]: < 25% | pEC50 [2]: > 5.70 | Emax [2, 5]: 25 to 100% | pEC50 [3]: > 5.70 | Emax [3, 5]: 25 to 100% | pEC50 [4]: > 5.70 | Emax [4, 5]: 25 to 100%
